The first test has as its system OV90. The test can be described thus: drug sensitivity score (DSS) from 5-point dose-response viability curve (DSS (area-under-curve based score)); higher = more sensitive (stronger growth inhibition or killing); extreme values may be limits of the assay. The note with it: exposure time: 72 h; concentration range: 5 concentrations over 10,000-fold range. A digest of the protocol: (§1)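 For the drug sensitivity score, obtained per cell line and drug in Breeze software, larger values mean greater sensitivity. No response corresponds to a score of zero. Ovarian cancer and normal ovarian cells were seeded at 1,500 per well into 384-well plates already holding acoustically dispensed drugs (Echo 550, DMSO or water, five concentrations over a 10,000-fold range) and incubated 3 days at 37°C, 5% CO2. CellTiter-Glo luminescence on a PHERAstar FS gave the viability readout.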
As for `O=C(c1ccc(C(=O)N2CCC(N3CCCC3)CC2)c(Nc2ccccc2)c1)N1CCC(N2CCCC2)CC1` [UNC1215], the drug sensitivity score was 0. Molecule `CCCCNc1ncc(C(=O)NCc2ccc(-n3ccnc3)cc2)c(NC2CCC(O)CC2)n1` (configuration not stated) [UNC2881] registered a drug sensitivity score of 1.2.

The molecule `NC(=O)c1cccc(-c2cccc(OC(=O)NC3CCCCC3)c2)c1` [URB597] had a drug sensitivity score of 0.

In the case of `CC(C)Nc1cc(-c2c[nH]c(C(=O)N[C@H](CO)c3cccc(Cl)c3)c2)c(Cl)cn1` [Ulixertinib], the drug sensitivity score stood at 14.

For `CC[C@@H]1CN(C(=O)NCC(F)(F)F)C[C@@H]1c1cnc2cnc3[nH]ccc3n12` [Upadacitinib], the drug sensitivity score is 1.3.

As for `Cn1ncc(Cl)c1-c1cc(C(=O)N[C@H](CN)Cc2ccc(F)c(F)c2)oc1Cl` [Uprosertib], the drug sensitivity score worked out at 0.7.

As for `CS(=O)(=O)c1ccc(-c2cnc(N)c(C(=O)Nc3ccccc3)n2)cc1` [VE-821], the drug sensitivity score is 0. On to `O=C(O)CC1CC(c2ccccc2)=NO1` (configuration not stated) [VGX-1027], for which the drug sensitivity score is 0.

In the case of `C=CC(=O)N1CC/C(=C\c2ccc(F)c([N+](=O)[O-])c2)C(=O)/C(=C/c2ccc(F)c([N+](=O)[O-])c2)C1` [VLX1570], the drug sensitivity score stood at 16.8. On the same count and under the same terms, next, `CNC(=O)c1ccccc1Nc1cc(Nc2ccc(N3CCOCC3)cc2OC)ncc1C(F)(F)F` [VS-4718]: 9.2; `CCCC(CCC)C(=O)O` [Valproic acid]: 0; `CCCCC(=O)OCC(=O)[C@]1(O)Cc2c(O)c3c(c(O)c2[C@@H](O[C@H]2C[C@H](NC(=O)C(F)(F)F)[C@H](O)[C@H](C)O2)C1)C(=O)c1c(OC)cccc1C3=O` [Valrubicin]: 7.7. Molecule `COc1cc2/c(=N/c3ccc(Br)cc3F)nc[nH]c2cc1OCC1CCN(C)CC1` [Vandetanib] came in with a drug sensitivity score of 0. The same measure, in the same setting: then `CCc1c(C(=O)C(N)=O)c2c(OCC(=O)O)cccc2n1Cc1ccccc1` [Varespladib], with 0; and `C[C@@H]1COC(Nc2ccc3ncnc(Nc4ccc(OCc5nccs5)c(Cl)c4)c3c2)=N1` [Varlitinib], with 0. Same read-out and setting: next, `Clc1ccc(Nc2nnc(Cc3ccncc3)c3ccccc23)cc1` [Vatalanib]: 0.

Another test deals with OVCAR4. The description is as above. The following applies: exposure time: 72 h; concentration range: 5 concentrations over 10,000-fold range. Put shortly:
as §1
In turn, `CN(C)CCOc1ccc(/C(=C(/CCCl)c2ccccc2)c2ccccc2)cc1` [Toremifene] showed a drug sensitivity score of 2. Same read-out and setting: next, `CC(C)C[C@@H](C(=O)N[C@H](C(=O)OC1CCCC1)c1ccccc1)[C@H](O)C(=O)NO` [Tosedostat]: 7.4; `Cc1cc(Nc2cc(N3CCN(C)CC3)nc(Sc3ccc(NC(=O)C4CC4)cc3)n2)n[nH]1` [Tozasertib]: 5.8.

As for `CC(=O)Nc1cccc(-n2c(=O)n(C3CC3)c(=O)c3c(Nc4ccc(I)cc4F)n(C)c(=O)c(C)c32)c1` [Trametinib], the drug sensitivity score stood at 1.9.

As for `CC1=C(/C=C/C(C)=C/C=C/C(C)=C/C(=O)O)C(C)(C)CCC1` [Tretinoin], the drug sensitivity score is 0. On the same count and under the same terms, then `NC(=S)N/N=C/c1ncccc1N` [Triapine], with 0; and `O=c1[nH]c(=O)n([C@H]2C[C@H](O)[C@@H](CO)O2)cc1C(F)(F)F` [Trifluridine], with 1.1; and `O=C(CCCCCCC(=O)Nc1ccc([C@H]2O[C@@H](CSc3nc(-c4ccccc4)c(-c4ccccc4)o3)C[C@@H](c3ccc(CO)cc3)O2)cc1)NO` [Tubacin], with 2.7.

For `CN1CCc2c(c3ccccc3n2Cc2ccc(C(=O)NO)cc2)C1` [Tubastatin A], the drug sensitivity score is 1.7. Same read-out and setting: next, `Cc1cc(Nc2ncnc3ccc(NC4=NC(C)(C)CO4)cc23)ccc1Oc1ccn2ncnc2c1` [Tucatinib]: 0; `Nc1cc(F)ccc1NC(=O)c1ccc(CNC(=O)/C=C/c2cccnc2)cc1` [Tucidinostat]: 1.7; `CN[C@@H]1C[C@H]2O[C@@](C)([C@@H]1OC)n1c3ccccc3c3c4c(c5c6ccccc6n2c5c31)C(=O)N[C@H]4O` [UCN-01]: 13.8.

Regarding `COC(=O)c1ccc2c(c1)[nH]c1ncnc(NCCCN3CCCCC3)c12` [UM729], the drug sensitivity score was found to be 0. Same read-out and setting: then `COc1cc2c(NC3CCN(C(C)C)CC3)nc(C3CCCCC3)nc2cc1OCCCN1CCCC1` [UNC0638], with 0.9; and `COc1cc2c(NC3CCN(C(C)C)CC3)nc(N3CCC(F)(F)CC3)nc2cc1OCCCN1CCCC1` [UNC0642], with 0.

For the molecule `O=C(c1ccc(C(=O)N2CCC(N3CCCC3)CC2)c(Nc2ccccc2)c1)N1CCC(N2CCCC2)CC1` [UNC1215], the drug sensitivity score turned out to be 0. The same measure, in the same setting: next, `CCCCNc1ncc(C(=O)NCc2ccc(-n3ccnc3)cc2)c(NC2CCC(O)CC2)n1` (configuration not stated) [UNC2881]: 0.1. Still for that read-out and setting: next, `NC(=O)c1cccc(-c2cccc(OC(=O)NC3CCCCC3)c2)c1` [URB597]: 0.

In turn, `CC(C)Nc1cc(-c2c[nH]c(C(=O)N[C@H](CO)c3cccc(Cl)c3)c2)c(Cl)cn1` [Ulixertinib] had a drug sensitivity score of 1.1. `CC[C@@H]1CN(C(=O)NCC(F)(F)F)C[C@@H]1c1cnc2cnc3[nH]ccc3n12` [Upadacitinib] displayed a drug sensitivity score of 0. In turn, `Cn1ncc(Cl)c1-c1cc(C(=O)N[C@H](CN)Cc2ccc(F)c(F)c2)oc1Cl` [Uprosertib] registered a drug sensitivity score of 0.

For `CS(=O)(=O)c1ccc(-c2cnc(N)c(C(=O)Nc3ccccc3)n2)cc1` [VE-821], the drug sensitivity score was found to be 0. Still for that read-out and setting: then `O=C(O)CC1CC(c2ccccc2)=NO1` (configuration not stated) [VGX-1027], with 0; and `C=CC(=O)N1CC/C(=C\c2ccc(F)c([N+](=O)[O-])c2)C(=O)/C(=C/c2ccc(F)c([N+](=O)[O-])c2)C1` [VLX1570], with 18.7; and `CNC(=O)c1ccccc1Nc1cc(Nc2ccc(N3CCOCC3)cc2OC)ncc1C(F)(F)F` [VS-4718], with 6.8.

The molecule `CCCC(CCC)C(=O)O` [Valproic acid] showed a drug sensitivity score of 0. Same read-out and setting: next, `CCCCC(=O)OCC(=O)[C@]1(O)Cc2c(O)c3c(c(O)c2[C@@H](O[C@H]2C[C@H](NC(=O)C(F)(F)F)[C@H](O)[C@H](C)O2)C1)C(=O)c1c(OC)cccc1C3=O` [Valrubicin]: 3.8; `COc1cc2/c(=N/c3ccc(Br)cc3F)nc[nH]c2cc1OCC1CCN(C)CC1` [Vandetanib]: 1.2.

The molecule `CCc1c(C(=O)C(N)=O)c2c(OCC(=O)O)cccc2n1Cc1ccccc1` [Varespladib] showed a drug sensitivity score of 0. On the same count and under the same terms, then `C[C@@H]1COC(Nc2ccc3ncnc(Nc4ccc(OCc5nccs5)c(Cl)c4)c3c2)=N1` [Varlitinib], with 1.9; and `Clc1ccc(Nc2nnc(Cc3ccncc3)c3ccccc23)cc1` [Vatalanib], with 0.
